Source: US11078170B2 (Assembly Biosciences, Inc., priority 2017, dated 2021)

system: HBV viral production from HepAD38 cells; assay: Activity of test compounds on viral production from HepAD38 cells (viral load by qPCR of HBV core sequence in supernatant); format: cell-based; conditions: Hepatitis B virus, 120 h, 5 days incubation, HBV DNA in supernatant by qPCR, top concentration 10 μM, read-out: Viral Load EC50 Activity range
In short: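 EC50 and CC50 come from four-parameter fits of supernatant viral load and CellTiter-Glo viability, respectively. Viral load was measured by core-region TaqMan qPCR against HBV DNA standards and compared with DMSO controls. Tet-free HepAD38 cells (50,000/well, 2% FBS) were exposed to compound, highest 10 μM, for 5 days at 37° C.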

| SMILES | EC50 [nM] |
| --- | --- |
| [2H]C1[C@]([2H])(c2ccc(-c3cnn(C([2H])([2H])[2H])c3)s2)NS(=O)(=O)N(C([2H])([2H])[2H])[C@]1([2H])C(=O)Nc1ccc(F)c(Cl)c1 (stereo in doubt) [HBV-CSU-379-ISO-I, Cis-N-(3-Chloro-4-fluorophenyl)-2-(methyl-d3)-5-(5-(1-(methyl-d3)-1H-pyrazol-4-yl)thiophen-2-yl)-1,2,6-thiadiazinane-3,4,5-d3-3-carboxamide 1,1-dioxide] | < 1000 |
| [2H]C1[C@]([2H])(C(=O)Nc2ccc(F)c(Cl)c2)N(C([2H])([2H])[2H])S(=O)(=O)N[C@]1([2H])c1ccc(-c2cnn(C([2H])([2H])[2H])c2)s1 (stereo in doubt) [HBV-CSU-379-ISO-II, Cis-N-(3-Chloro-4-fluorophenyl)-2-(methyl-d3)-5-(5-(1-(methyl-d3)-1H-pyrazol-4-yl)thiophen-2-yl)-1,2,6-thiadiazinane-3,4,5-d3-3-carboxamide 1,1-dioxide] | < 1000 |
| CN1C(C(=O)Nc2ccccc2)CC(c2cccs2)NS1(=O)=O (stereo not drawn) [HBV-CSU-006, Cis-2-Methyl-N-phenyl-5-(thiophen-2-yl)-1,2,6-thiadiazinane-3-carboxamide 1,1-dioxide] | < 1000 |
| CN1[C@H](C(=O)Nc2cccc(Cl)c2)C[C@H](c2cccs2)NS1(=O)=O [HBV-CSU-010-ISO-I, Cis-N-(3-chlorophenyl)-2-methyl-5-(thiophen-2-yl)-1,2,6-thiadiazinane-3-carboxamide 1,1-dioxide] | < 1000 |
| CN1C(C(=O)Nc2ccc(F)c(F)c2)CC(c2cccs2)NS1(=O)=O (stereo not drawn) [HBV-CSU-011, Cis-N-(3,4-difluorophenyl)-2-methyl-5-(thiophen-2-yl)-1,2,6-thiadiazinane-3-carboxamide 1,1-dioxide] | < 1000 |
| CN1C(C(=O)Nc2cccc(C(F)(F)F)c2)CC(c2cccs2)NS1(=O)=O (stereo not drawn) [HBV-CSU-012, Cis-2-Methyl-5-(thiophen-2-yl)-N-(3-(trifluoromethyl)phenyl)-1,2,6-thiadiazinane-3-carboxamide 1,1-dioxide] | 1000 to 5000 |
| CN1C(C(=O)Nc2ccc(Cl)cc2)CC(c2cccs2)NS1(=O)=O (stereo not drawn) [HBV-CSU-014, Cis-N-(4-chlorophenyl)-2-methyl-5-(thiophen-2-yl)-1,2,6-thiadiazinane-3-carboxamide 1,1-dioxide] | 1000 to 5000 |
| CN(C(=O)C1CC(c2cccs2)NS(=O)(=O)N1C)c1ccc(F)c(Cl)c1 (stereo not drawn) [HBV-CSU-015, Cis-N-(3-Chloro-4-fluorophenyl)-N-2-dimethyl-5-(thiophen-2-yl)-1,2,6-thiadiazinane-3-carboxamide 1,1-dioxide] | 1000 to 5000 |
| CN1[C@H](C(=O)Nc2ccc(F)c(Br)c2)C[C@H](c2cccs2)NS1(=O)=O [HBV-CSU-016-ISO-I, Cis-N-(3-Bromo-4-fluorophenyl)-2-methyl-5-(thiophen-2-yl)-1,2,6-thiadiazinane-3-carboxamide 1,1-dioxide] | < 1000 |
| CN1C(C(=O)Nc2cccc(Br)c2)CC(c2cccs2)NS1(=O)=O (stereo not drawn) [HBV-CSU-017, Cis-N-(3-Bromophenyl)-2-methyl-5-(thiophen-2-yl)-1,2,6-thiadiazinane-3-carboxamide 1,1-dioxide] | < 1000 |
| CN1[C@H](C(=O)Nc2cccc(Br)c2)C[C@H](c2cccs2)NS1(=O)=O [HBV-CSU-017-ISO-I, Cis-N-(3-Bromophenyl)-2-methyl-5-(thiophen-2-yl)-1,2,6-thiadiazinane-3-carboxamide 1,1-dioxide] | < 1000 |
| CN1C(C(=O)Nc2ccc(Cl)c(F)c2)CC(c2cccs2)NS1(=O)=O (stereo not drawn) [HBV-CSU-018, Cis-N-(4-Chloro-3-fluorophenyl)-2-methyl-5-(thiophen-2-yl)-1,2,6-thiadiazinane-3-carboxamide 1,1-dioxide] | 1000 to 5000 |
| CN1C(C(=O)Nc2ccc(C#N)cc2)CC(c2cccs2)NS1(=O)=O (stereo not drawn) [HBV-CSU-019, Cis-N-(4-cyanophenyl)-2-methyl-5-(thiophen-2-yl)-1,2,6-thiadiazinane-3-carboxamide 1,1-dioxide] | > 5000 |
| CN1[C@H](C(=O)Nc2cccc(C#N)c2)C[C@H](c2cccs2)NS1(=O)=O [HBV-CSU-020-ISO-I, Cis-N-(3-cyanophenyl)-2-methyl-5-(thiophen-2-yl)-1,2,6-thiadiazinane-3-carboxamide 1,1-dioxide] | < 1000 |
| CN1C(C(=O)Nc2ccc(F)c(Cl)c2)CC(c2cccs2)N(C)S1(=O)=O (stereo not drawn) [HBV-CSU-023, Cis-N-(3-Chloro-4-fluorophenyl)-2,6-dimethyl-5-(thiophen-2-yl)-1,2,6-thiadiazinane-3-carboxamide 1,1-dioxide] | 1000 to 5000 |
| COCCN1[C@@H](C(=O)Nc2ccc(F)c(Cl)c2)C[C@@H](c2cccs2)NS1(=O)=O [HBV-CSU-025-ISO-I, Cis-N-(3-chloro-4-fluorophenyl)-2-(2-methoxyethyl)-5-(thiophen-2-yl)-1,2,6-thiadiazinane-3-carboxamide 1,1-dioxide] | > 5000 |

| SMILES | EC50 [nM] |
| --- | --- |
| COCCN1[C@H](C(=O)Nc2ccc(F)c(Cl)c2)C[C@H](c2cccs2)NS1(=O)=O [HBV-CSU-025-ISO-II, Cis-N-(3-chloro-4-fluorophenyl)-2-(2-methoxyethyl)-5-(thiophen-2-yl)-1,2,6-thiadiazinane-3-carboxamide 1,1-dioxide] | < 1000 |
| CN1[C@@H](C(=O)Nc2ccc(F)c(Cl)c2)C[C@@H](c2nccs2)NS1(=O)=O [HBV-CSU-027-ISO-I, Cis-N-(3-chloro-4-fluorophenyl)-2-methyl-5-(thiazol-2-yl)-1,2,6-thiadiazinane-3-carboxamide 1,1-dioxide] | > 5000 |
| CN1[C@H](C(=O)Nc2ccc(F)c(Cl)c2)C[C@H](c2ccc(F)s2)NS1(=O)=O [HBV-CSU-029-ISO-I, Cis-N-(3-chloro-4-fluorophenyl)-5-(5-fluorothiophen-2-yl)-2-methyl-1,2,6-thiadiazinane-3-carboxamide 1,1-dioxide] | < 1000 |
| CN1[C@H](C(=O)Nc2ccc(F)c(Cl)c2)C[C@H](c2ccccn2)NS1(=O)=O [HBV-CSU-031-ISO-I, Cis-N-(3-Chloro-4-fluorophenyl)-2-methyl-5-(pyridin-2-yl)-1,2,6-thiadiazinane-3-carboxamide 1,1-dioxide] | < 1000 |
| CN1[C@@H](C(=O)Nc2ccc(F)c(Cl)c2)C[C@@H](c2ccccn2)NS1(=O)=O [HBV-CSU-031-ISO-II, Cis-N-(3-Chloro-4-fluorophenyl)-2-methyl-5-(pyridin-2-yl)-1,2,6-thiadiazinane-3-carboxamide 1,1-dioxide] | > 5000 |
| CN1C(C(=O)Nc2ccc(F)c(Cl)c2)CC(c2ccc(F)cn2)NS1(=O)=O (stereo not drawn) [HBV-CSU-032, Cis-N-(3-Chloro-4-fluorophenyl)-5-(5-fluoropyridin-2-yl)-2-methyl-1,2,6-thiadiazinane-3-carboxamide 1,1-dioxide] | < 1000 |
| CN1[C@H](C(=O)Nc2ccc(F)c(Cl)c2)C[C@H](c2ccc(F)cn2)NS1(=O)=O [HBV-CSU-032-ISO-I, Cis-N-(3-Chloro-4-fluorophenyl)-5-(5-fluoropyridin-2-yl)-2-methyl-1,2,6-thiadiazinane-3-carboxamide 1,1-dioxide] | < 1000 |
| CN1[C@@H](C(=O)Nc2ccc(F)c(Cl)c2)C[C@@H](c2ccc(F)cn2)NS1(=O)=O [HBV-CSU-032-ISO-II, Cis-N-(3-Chloro-4-fluorophenyl)-5-(5-fluoropyridin-2-yl)-2-methyl-1,2,6-thiadiazinane-3-carboxamide 1,1-dioxide] | > 5000 |
| CN1C(C(=O)Nc2ccc(F)c(Cl)c2)CC(c2cccnc2)NS1(=O)=O (stereo not drawn) [HBV-CSU-033, Cis-N-(3-Chloro-4-fluorophenyl)-2-methyl-5-(pyridin-3-yl)-1,2,6-thiadiazinane-3-carboxamide 1,1-dioxide] | < 1000 |
| C=CCN1C(C(=O)Nc2ccc(F)c(Cl)c2)CC(c2cccs2)NS1(=O)=O (stereo not drawn) [HBV-CSU-040, Cis-2-Allyl-N-(3-chloro-4-fluorophenyl)-5-(thiophen-2-yl)-1,2,6-thiadiazinane-3-carboxamide 1,1-dioxide] | < 1000 |
| O=C(Nc1ccc(F)c(Cl)c1)C1CC(c2cccs2)NS(=O)(=O)N1CCO (stereo not drawn) [HBV-CSU-041, Cis-N-(3-Chloro-4-fluorophenyl)-2-(2-hydroxyethyl)-5-(thiophen-2-yl)-1,2,6-thiadiazinane-3-carboxamide 1,1-dioxide] | > 5000 |
| CN(C)CCN1[C@H](c2cccs2)C[C@H](C(=O)Nc2ccc(F)c(Cl)c2)N(C)S1(=O)=O [HBV-CSU-043-ISO-II, Cis-N-(3-chloro-4-fluorophenyl)-6-(2-(dimethylamino)ethyl)-2-methyl-5-(thiophen-2-yl)-1,2,6-thiadiazinane-3-carboxamide 1,1-dioxide] | > 5000 |
| COCCN1[C@H](c2cccs2)C[C@H](C(=O)Nc2ccc(F)c(Cl)c2)NS1(=O)=O [HBV-CSU-044-ISO-I, Cis-N-(3-Chloro-4-fluorophenyl)-6-(2-methoxyethyl)-5-(thiophen-2-yl)-1,2,6-thiadiazinane-3-carboxamide 1,1-dioxide] | > 5000 |
| COCCN1[C@@H](c2cccs2)C[C@@H](C(=O)Nc2ccc(F)c(Cl)c2)NS1(=O)=O [HBV-CSU-044-ISO-II, Cis-N-(3-Chloro-4-fluorophenyl)-6-(2-methoxyethyl)-5-(thiophen-2-yl)-1,2,6-thiadiazinane-3-carboxamide 1,1-dioxide] | > 5000 |
| CN1[C@H](C(=O)Nc2ccc(F)c(C#N)c2)C[C@H](c2cccs2)NS1(=O)=O [HBV-CSU-045-ISO-I, Cis-N-(3-cyano-4-fluorophenyl)-2-methyl-5-(thiophen-2-yl)-1,2,6-thiadiazinane-3-carboxamide 1,1-dioxide] | < 1000 |
| CN1[C@H](C(=O)Nc2ccc(F)c(C(F)(F)F)c2)C[C@H](c2cccs2)NS1(=O)=O [HBV-CSU-046-ISO-I, Cis-N-(4-Fluoro-3-(trifluoromethyl)phenyl)-2-methyl-5-(thiophen-2-yl)-1,2,6-thiadiazinane-3-carboxamide 1,1-dioxide] | < 1000 |
